In general, solubility refers to the dissolved amount per volume that the medium holds. Broadly, the Ki is a dissociation constant, usually derived from enzyme kinetics or from competition with a known ligand. Lower therefore signals tighter binding.

The structures appear in SMILES notation. ≈ marks a conversion by molar mass, not a printed value. Bounds are passed on as bounds.

Data set [1] can be described thus: Aqueous solubility (slurry in pH 7 buffer, UPLC). Type of data set: physicochemical. Conditions: aqueous buffer, thermodynamic from solid; pH 7.4 in PBS buffer solution; read-out: Solubility. Here is the method: Aqueous solubility of the compounds was measured by suspending, sonicating (30 minutes), and slurrying (2 hours, 1000 rpm) excess solid (typically 5-10 mg) in phosphate buffered saline at pH 7, or equivalent pH 7 buffer. The suspension was then sonicated again for 30 minutes and stirred again at 1000 rpm for at least 6-24 hours. Approximately 400 μL of sample was removed and placed into spin filters. Each sample was spun at 14K rpm for 10 minutes using a 0.45 μm PVDF spin filter. A portion of the filtrate was removed and diluted with 1:1 ACN:H2O. The resultant samples were analyzed using UPLC analysis. Retains of the solids were checked by XRPD to determine if the material was crystalline or amorphous. Solubility of Compound A was measured at 140 μg/mL at pH 7.4 in PBS buffer solution.

Data set [2] addresses T1, human PDE10 enzyme (Homo sapiens, UniProt Q9Y233).
T1 construct: made in house; host or cells: AD293 cells, transiently transfected; the supernatant (cytoplasmic fraction) of the sonicated lysate served as enzyme
The experiment in a line: PDE10 fluorescence polarization (IMAP FP) inhibition assay. It is filed as biochemical. Conditions: 'generally less than about'. Here is the method:
The activity of the compounds in accordance with the present invention as PDE10 inhibitors may be readily determined without undue experimentation using a fluorescence polarization (FP) methodology that is well known in the art (Huang, W., et al., J. Biomol Screen, 2002, 7: 215).
In a typical experiment the PDE10 inhibitory activity of compounds such as Compound A was determined in accordance with the following experimental method. PDE10A2 was amplified from human fetal brain cDNA (Clontech, Mountain View, CA) using a forward primer corresponding to nucleotides 56-77 of human PDE10A2 (Accession No. AF127480, Genbank Identifier 4894716), containing a Kozak consensus sequence, and a reverse primer corresponding to nucleotides 2406-2413 of human PDE10A2 (Accession No. AF127480, Genbank Identifier 4894716). Amplification with Easy-A polymerase (Stratagene, La Jolla, CA) was 95° C. for 2 minutes followed by thirty three cycles of 95° C. for 40 seconds, 55° C. for 30 seconds, and 72° C. for 2 minutes 48 seconds. Final extension was 72° C. for 7 minutes. […] The fluorescence polarization assay for cyclic nucleotide phosphodiesterases was performed using an IMAP® FP kit supplied by Molecular Devices, Sunnyvale, CA (product #R8139). […] 0% of inhibition is determined by using DMSO (1% final concentrations). […]

T1 sequence (Q9Y233 267-1055): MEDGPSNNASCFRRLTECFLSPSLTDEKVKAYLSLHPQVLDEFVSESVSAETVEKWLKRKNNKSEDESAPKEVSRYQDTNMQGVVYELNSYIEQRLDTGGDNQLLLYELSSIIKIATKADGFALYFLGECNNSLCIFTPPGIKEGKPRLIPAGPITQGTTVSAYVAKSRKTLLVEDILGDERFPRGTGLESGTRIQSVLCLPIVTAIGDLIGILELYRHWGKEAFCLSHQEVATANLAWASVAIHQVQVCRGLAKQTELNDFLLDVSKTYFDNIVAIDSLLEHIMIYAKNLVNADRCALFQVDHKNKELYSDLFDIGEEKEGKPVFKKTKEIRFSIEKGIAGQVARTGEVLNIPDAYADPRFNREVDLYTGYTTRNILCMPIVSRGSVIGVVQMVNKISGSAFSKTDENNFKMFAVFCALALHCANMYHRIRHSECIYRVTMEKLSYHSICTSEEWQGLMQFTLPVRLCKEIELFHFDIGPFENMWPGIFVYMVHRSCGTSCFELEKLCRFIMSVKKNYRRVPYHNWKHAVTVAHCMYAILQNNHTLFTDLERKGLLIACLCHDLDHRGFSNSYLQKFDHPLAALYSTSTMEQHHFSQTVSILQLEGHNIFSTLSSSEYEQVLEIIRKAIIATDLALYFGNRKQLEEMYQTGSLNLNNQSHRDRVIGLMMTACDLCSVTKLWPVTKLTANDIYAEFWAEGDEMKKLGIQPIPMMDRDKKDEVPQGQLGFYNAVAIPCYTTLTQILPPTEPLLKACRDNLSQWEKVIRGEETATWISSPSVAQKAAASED

For the compound `Cc1ccc([C@H]2C[C@@H]2COc2cc(NCc3nnc(C)s3)nc(C)n2)nc1` [Compound A, 2-methyl-N-((5-methyl-1,3,4-thiadiazol-2-yl)methyl)-6-(((1S,2S)-2-(5-methylpyridin-2-yl)cyclopropyl)methoxy)pyrimidin-4-amine, reference compound], the solubility in data set [1] worked out at 140 µg/mL (≈ 366 µM). The compound also returned a Ki in data set [2] of less than 1000 nM.
